Columns and labels:
[1] = tested on: Saccharomyces cerevisiae NRRL Y-12632; assay: Dose-dependent response of ethanologenic yeast to HMF (cell growth, OD600)
Experimental: A loopful of cells of each strain from the synthetic medium agar plate was transferred into a synthetic broth and incubated at 30° C. with agitation and maintained in the broth prior to inoculum preparation. Cells were harvested by centrifugation 8-15 hours after incubation and suspended in a fresh synthetic broth serving as the inoculum source. The initial OD at 620 nm of the inoculated medium for each culture was adjusted and recorded. Each strain was grown in a 15-ml test tube containing 3 ml of synthetic broth amended with inhibitory compounds in an incubator at 30° C. with agitation at 220 rpm under micro-oxic conditions. Cell growth was monitored by measuring optical absorbance at 620 nm using a spectrophotometer and samples were taken periodically.
For inhibitor application, cultures were supplemented with HMF at a series of final concentrations of 0, 10, 30, 60, and 120 mM, or combined inhibitors of furfural and HMF each at 12 mM, respectively. A non inhibitor treated culture served as a control. Cultures were monitored for cell growth at OD600 and samples were taken hourly for the first 16 hours and proper intervals afterward till the completion of the fermentation. Cell free supernatant was taken for metabolic profiling analysis using HPLC. […] Duplicated experiments were carried out for all treatments.

[2] = tested on: furfural reduction activity of Y-50049 whole cell extracts; assay: Whole cell lysate enzyme assay after inhibitor induction (absorbance at 340 nm); type: biochemical, Saccharomyces cerevisiae; details: induction with 30 mM inhibitor for 3 h; 10 mM furfural substrate; 100 μM NADPH

Row | Structure (SMILES) | cell growth ([1]; HMF at 120 mM) | cell growth ([1]; HMF at 10, 30 and 60 mM, compared with control) | lethal dose (cells completely repressed, no biological activity or HMF transformation till 128 hours) ([1]; synthetic medium, 30° C.) [mM] | induced furfural reduction activity coupled with cofactor NADPH [2]
1 | O=Cc1ccc(CO)o1 [HMF, 5-hydroxymethylfurfural] | no cell growth was observed | delayed | 120 | ranked the least
2 | O=Cc1ccco1 [furfural] | – | – | – | strongest activities

Reference: US20090004726A1, “Inhibitor Tolerant Saccharomyces Cerevisiae Strain” (The United States of America, as represented by the …, priority 2007, published 2009)
